What was measured:
[1] = tested on: green peach aphid (Myzus persicae); assay: Test B.2: control of green peach aphid through systemic means, artificial diet under membrane; assay type: in vivo
Text: For evaluating control of green peach aphid (Myzus persicae) through systemic means the test unit consisted of 96-well-microtiter plates containing liquid artificial diet under an artificial membrane.
The compounds or mixtures were formulated using a solution containing 75 wt % water and 25 wt % DMSO. Different concentrations of formulated compounds or mixtures were pipetted into the aphid diet, using a custom built pipetter, at two replications.
(§1) For experimental mixtures in these tests identical volumes of both mixing partners at the desired concentrations respectively, were mixed together.
After application, 5-8 adult aphids were placed on the artificial membrane inside the microtiter plate wells. The aphids were then allowed to suck on the treated aphid diet and incubated at 23±1° C., 50±5% RH for 3 days. Aphid mortality and fecundity was then visually assessed.

[2] = tested on: vetch aphid (Megoura viciae); assay: Test B.1: control of vetch aphid on broad bean leaf disks, contact or systemic; assay type: in vivo
Method: For evaluating control of vetch aphid (Megoura viciae) through contact or systemic means the test unit consisted of 24-well-microtiter plates containing broad bean leaf disks.
The compounds or mixtures were formulated using a solution containing 75 wt % water and 25 wt % DMSO. Different concentrations of formulated compounds or mixtures were sprayed onto the leaf disks at 2.5 μl, using a custom built micro atomizer, at two replications.
as §1
After application, the leaf disks were air-dried and 5-8 adult aphids placed on the leaf disks inside the microtiter plate wells. The aphids were then allowed to suck on the treated leaf disks and incubated at 23±1° C., 50±5% RH (relative humidity) for 5 days. Aphid mortality and fecundity was then visually assessed.

[3] = mixing partner alone, ppm 0.08 + 0, 3 days
[4] = mixing partner alone, ppm 0.08 + 0, 5 days
[5] = mixing partner alone, ppm 0.4 + 0, 3 days
[6] = mixing partner alone, ppm 40 + 0, 3 days

With `Cc1cc(C)cc(CC(NC2=NCCS2)c2cccc(C)c2C)c1` (stereo not drawn) [C.33, (4,5-Dihydro-thiazol-2-yl)-[2-(3,5-dimethyl-phenyl)-1-(2,3-dimethyl-phenyl)-ethyl]-amine] the “Average Control %” value ([1]; compound C.33 alone, ppm 0 + 0.8, 3 days) was 0%, the “Average Control %” value ([1]; compound C.33 alone, ppm 0 + 4, 3 days) was 0% and the “Average Control %” value ([1]; compound C.33 alone, ppm 0 + 20, 3 days) was 0%. The “Average Control %” value ([1]; compound C.33 alone, ppm 0 + 20, 3 days, listed as test compound) was 50% and the “Average Control %” value ([2]; compound C.33 alone, ppm 0 + 0.8, 5 days) was 0%.
In the case of abamectin, the “Average Control %” value [1, 3] is reported as 0% and the “Average Control %” value [2, 4] is reported as 0%.
With `CNC(=O)c1cc(Cl)cc(C)c1NC(=O)c1cc(Br)nn1-c1ncccc1Cl` [Chlorantraniliprole, chlorantraniliprole] the “Average Control %” value [1, 5] was 50%.
For `CC1=NNC(=O)N(/N=C/c2cccnc2)C1` [Pymetrozine, pymetrozine], the “Average Control %” value [1, 6] was 50%.
For `CC(C)(C)c1ccc(CSc2cnn(C(C)(C)C)c(=O)c2Cl)cc1` [Pyridaben, pyridaben], the “Average Control %” value [1, 6] was 0%.
In the case of `CN1COCN(Cc2cnc(Cl)s2)/C1=N\[N+](=O)[O-]` [Thiamethoxam, thiamethoxam], the “Average Control %” value [1, 3] is reported as 0% and the “Average Control %” value [2, 4] is reported as 0%.
For `N#Cc1nn(-c2c(Cl)cc(C(F)(F)F)cc2Cl)c(N)c1[S+]([O-])C(F)(F)F` (stereo not drawn) [Fipronil, fipronil], the “Average Control %” value [1, 5] was 0% and the “Average Control %” value ([2]; mixing partner alone, ppm 2 + 0, 5 days) was 25%.
`CC1(C)C(C=C(Cl)Cl)C1C(=O)OC(C#N)c1cccc(Oc2ccccc2)c1` (stereo not drawn) [Alphacypermethrin, alpha-cypermethrin] was tested, and the “Average Control %” value ([1]; mixing partner alone, ppm 10 + 0, 3 days) was 50%.
